Experiments:
[1] = system: advanced or metastatic solid tumors; assay: Antitumor activity, best overall response by RECIST version 1.1; assay type: in vivo, human
Procedure: The phosphorylation status of PRAS40 in the blood was measured with an electrochemiluminescence detection assay using a Meso Scale Discovery instrument (Meso Scale Diagnostics, Rockville, MD, US). For efficacy, solid tumors were assessed using Response Evaluation Criteria in Solid Tumors (RECIST; version 1.1).

KPL-4 = settings: oral dosing; KPL-4 (HER2 amplification, PIK3CA mutation); cited from earlier work
[2] = RMP (intermittent dosing) Level 4 (24 mg) n = 6
[3] = RMP (intermittent dosing) Level 5 (32 mg) n = 4
[4] = SAP (intermittent dosing) Cohort 1 Level 4 n = 16
[5] = SAP (intermittent dosing) Cohort 2 Level 4 n = 7
[6] = SAP (intermittent dosing) Cohort 3 Level 4 n = 20

C[C@]1(O)C[C@@](N)(c2ccc(-c3nc4n(c3-c3ccccc3)COc3ccncc3-4)cc2)C1 [TAS-117]
Best overall response: CR ([1]; DEP (QD) Level 1 (4 mg) n = 2): 0 n (%) | Best overall response: NE ([1]; DEP (QD) Level 1 (4 mg) n = 2): 0 n (%) | Best overall response: Non-CR/non-PD ([1]; DEP (QD) Level 1 (4 mg) n = 2): 0 n (%) | Best overall response: PD ([1]; DEP (QD) Level 1 (4 mg) n = 2): 2 (100.0) n (%) | Best overall response: PR ([1]; DEP (QD) Level 1 (4 mg) n = 2): 0 n (%) | Best overall response: SD ([1]; DEP (QD) Level 1 (4 mg) n = 2): 0 n (%) | DCR (CR + PR + SD + non-CR/non-PD) ([1]; DEP (QD) Level 1 (4 mg) n = 2): 0 n (%) | RR (CR + PR) ([1]; DEP (QD) Level 1 (4 mg) n = 2): 0 n (%) | Best overall response: CR ([1]; DEP (QD) Level 2 (8 mg) n = 1): 0 n (%) | Best overall response: NE ([1]; DEP (QD) Level 2 (8 mg) n = 1): 0 n (%) | Best overall response: Non-CR/non-PD ([1]; DEP (QD) Level 2 (8 mg) n = 1): 0 n (%) | Best overall response: PD ([1]; DEP (QD) Level 2 (8 mg) n = 1): 0 n (%) | Best overall response: PR ([1]; DEP (QD) Level 2 (8 mg) n = 1): 0 n (%) | Best overall response: SD ([1]; DEP (QD) Level 2 (8 mg) n = 1): 1 (100.0) n (%) | DCR (CR + PR + SD + non-CR/non-PD) ([1]; DEP (QD) Level 2 (8 mg) n = 1): 1 (100.0) n (%) | RR (CR + PR) ([1]; DEP (QD) Level 2 (8 mg) n = 1): 0 n (%) | Best overall response: CR ([1]; DEP (QD) Level 3 (16 mg) n = 6): 0 n (%) | Best overall response: NE ([1]; DEP (QD) Level 3 (16 mg) n = 6): 0 n (%) | Best overall response: Non-CR/non-PD ([1]; DEP (QD) Level 3 (16 mg) n = 6): 0 n (%) | Best overall response: PD ([1]; DEP (QD) Level 3 (16 mg) n = 6): 6 (100.0) n (%) | Best overall response: PR ([1]; DEP (QD) Level 3 (16 mg) n = 6): 0 n (%) | Best overall response: SD ([1]; DEP (QD) Level 3 (16 mg) n = 6): 0 n (%) | DCR (CR + PR + SD + non-CR/non-PD) ([1]; DEP (QD) Level 3 (16 mg) n = 6): 0 n (%) | RR (CR + PR) ([1]; DEP (QD) Level 3 (16 mg) n = 6): 0 n (%) | Best overall response: CR ([1]; DEP (QD) Level 4 (24 mg) n = 3): 0 n (%) | Best overall response: NE ([1]; DEP (QD) Level 4 (24 mg) n = 3): 0 n (%) | Best overall response: Non-CR/non-PD ([1]; DEP (QD) Level 4 (24 mg) n = 3): 0 n (%) | Best overall response: PD ([1]; DEP (QD) Level 4 (24 mg) n = 3): 2 (66.7) n (%) | Best overall response: PR ([1]; DEP (QD) Level 4 (24 mg) n = 3): 0 n (%) | Best overall response: SD ([1]; DEP (QD) Level 4 (24 mg) n = 3): 1 (33.3) n (%) | DCR (CR + PR + SD + non-CR/non-PD) ([1]; DEP (QD) Level 4 (24 mg) n = 3): 1 (33.3) n (%) | RR (CR + PR) ([1]; DEP (QD) Level 4 (24 mg) n = 3): 0 n (%) | Best overall response: CR [1, 2]: 0 n (%) | Best overall response: NE [1, 2]: 0 n (%) | Best overall response: Non-CR/non-PD [1, 2]: 0 n (%) | Best overall response: PD [1, 2]: 4 (66.7) n (%) | Best overall response: PR [1, 2]: 0 n (%) | Best overall response: SD [1, 2]: 2 (33.3) n (%) | DCR (CR + PR + SD + non-CR/non-PD) [1, 2]: 2 (33.3) n (%) | RR (CR + PR) [1, 2]: 0 n (%) | Best overall response: CR [1, 3]: 0 n (%) | Best overall response: NE [1, 3]: 0 n (%) | Best overall response: Non-CR/non-PD [1, 3]: 0 n (%) | Best overall response: PD [1, 3]: 4 (100.0) n (%) | Best overall response: PR [1, 3]: 0 n (%) | Best overall response: SD [1, 3]: 0 n (%) | DCR (CR + PR + SD + non-CR/non-PD) [1, 3]: 0 n (%) | RR (CR + PR) [1, 3]: 0 n (%) | Patients with confirmed partial response ([1]; SAP): Four patients | Best overall response: CR [1, 4]: 0 n (%) | Best overall response: NE [1, 4]: 0 n (%) | Best overall response: Non-CR/non-PD [1, 4]: 0 n (%) | Best overall response: PD [1, 4]: 5 (31.3) n (%) | Best overall response: PR [1, 4]: 1 (6.3) n (%) | Best overall response: SD [1, 4]: 10 (62.5) n (%) | DCR (CR + PR + SD + non-CR/non-PD) [1, 4]: 11 (68.8) n (%) | RR (CR + PR) [1, 4]: 1 (6.3) n (%) | Best overall response: CR [1, 5]: 0 n (%) | Best overall response: NE [1, 5]: 0 n (%) | Best overall response: Non-CR/non-PD [1, 5]: 0 n (%) | Best overall response: PD [1, 5]: 1 (14.3) n (%) | Best overall response: PR [1, 5]: 0 n (%) | Best overall response: SD [1, 5]: 6 (85.7) n (%) | DCR (CR + PR + SD + non-CR/non-PD) [1, 5]: 6 (85.7) n (%) | RR (CR + PR) [1, 5]: 0 n (%) | Best overall response: CR [1, 6]: 0 n (%) | Best overall response: NE [1, 6]: 0 n (%) | Best overall response: Non-CR/non-PD [1, 6]: 0 n (%) | Best overall response: PD [1, 6]: 12 (60.0) n (%) | Best overall response: PR [1, 6]: 3 (15.0) n (%) | Best overall response: SD [1, 6]: 5 (25.0) n (%) | DCR (CR + PR + SD + non-CR/non-PD) [1, 6]: 8 (40.0) n (%) | RR (CR + PR) [1, 6]: 3 (15.0) n (%) | Confirmed PR ([1]; SAP cohort 1 (endometrial cancer with PIK3CA mutation), 1 of 16 patients): 6.3% | DCR ([1]; SAP cohort 2): 85.7% | DCR ([1]; SAP cohort 3): 40.0% | Confirmed PR ([1]; SAP cohort 3 (ovarian clear cell carcinoma), 3 of 20 patients): 15.0% | DCR ([1]; SAP, cohort 1): 68.8% | Best overall response: CR ([1]; Total N = 65): 0 n (%) | Best overall response: NE ([1]; Total N = 65): 0 n (%) | Best overall response: Non-CR/non-PD ([1]; Total N = 65): 0 n (%) | Best overall response: PD ([1]; Total N = 65): 36 (55.4) n (%) | Best overall response: PR ([1]; Total N = 65): 4 (6.2) n (%) | Best overall response: SD ([1]; Total N = 65): 25 (38.5) n (%) | DCR (CR + PR + SD + non-CR/non-PD) ([1]; Total N = 65): 29 (44.6) n (%) | RR (CR + PR) ([1]; Total N = 65): 4 (6.2) n (%) | DCR ([1]; dose level 2 in the DEP): 100% | Antitumor activity (KPL-4): demonstrated single-agent antitumor activity

Reference: article PMC11129975, “A first-in-human phase I study of TAS-117, an allosteric AKT inhibitor, in patients with advanced solid tumors” (Cancer Chemotherapy and Pharmacology, 2024)
